In US4200631A, “Treating mammalian subject sensitive to indomethacin ulcerogenisis” (priority 1978, dated 1980):
Several values for one entry are separate records, joined by “and”; a condition that tells them apart may be missing. Identical values can stand only once. Entries after “also recorded” stand apart in the source; their conditions may differ. Like-named read-outs stand apart in the source and are kept apart here.

Experiments:
[1] = rat, in vivo; for Analgesic ED50 / Therapeutical index LD50/ED50 (C): po
[2] = rat, in vivo; for ED50 at 180 min: po
prostaglandin synthesis = conditions: listed as Na-salicylate; cited from earlier work
in vivo [3] = conditions: rat, po
in vivo [4] = conditions: rat, po; remark: listed apart in the source
[5] = Antiphlogistic effect, carrageenin-oedema test (Series 1, Table 3)
Description: The antiphlogistic effects were studied on Wistar rats of both sexes, animal subjects found to be particularly prone to indomethacin ulcerogenisis, each weighing 100 to 150 g. The animals were starved for 24 hours, and then 0.1 ml portions of a 1% carrageenin solution were injected under mild ether anaesthesia into the plantar region of one of the hind paws in order to provoke inflammation (oedema). The antiphlogistic agent or a combination thereof was introduced into the stomach of the animals via a stomach tube immediately before injecting the carrageenin solution. 4 hours after this treatment the animals were sacrificed, and both hind paws were amputated above the ankles. The paws were weighed, and the oedema weight was calculated from the weight difference of the treated and untreated paws.

[6] = Gastric ulcerogenic side-effects, starved rats (Series 1, Tables 1 and 2); conditions: for No. of ulcer/stomach / Ulcer-free animals % / Ulcer-free animals No.: 4 h
[7] = rat, in vivo
[8] = 3-day gastrointestinal side-effect test on non-starved animals (Table 4); assay type: in vivo, rats
Description: In the following tests animals treated for 3 days with various combinations of indomethacin and sodium salicylate were examined. The non-starved test animals were treated orally for 3 days with compositions containing 20 mg/kg of indomethacin and increasing amounts of sodium salicylate.

[9] = rat, in vivo; remark: listed apart in the source
[10] = treated subsequently with Na-salicylate; cited from earlier work
in vivo [11] = conditions: rat, po; remark: listed apart in the source
in vivo [12] = conditions: rat, po; remark: listed apart in the source
[13] = general statement; cited from earlier work
[14] = indomethacin 3 × 20 mg/kg p.o. alone

O=C([O-])c1ccccc1O.[Na+] [Sodium salicylate]
Analgesic ED50 [1]: 513 mg/kg | Therapeutical index LD50/ED50 (C) [1]: 4.6 | ED50 at 180 min [2]: 320 mg/kg | inhibition of prostaglandin synthesis (prostaglandin synthesis): except Na-salicylate; also recorded: practically ineffective as a prostaglandin inhibitor | LD50 (in vivo [3]): 2400 mg/kg | selectivity ratio (in vivo [4]): 7.5 | Oedema-inhibiting effect % ([5]; sodium salicylate 50 mg/kg p.o. alone): 15% | Oedema-inhibiting effect % ([5]; sodium salicylate 100 mg/kg p.o. alone): 43% | No. of ulcer/stomach ([6]; 50 mg/kg p.o.): 0.1 ulcer/stomach | Ulcer-free animals % ([6]; 50 mg/kg p.o.): 82% | Ulcer-free animals No. ([6]; 50 mg/kg p.o.): 37 No. | No. of ulcer/stomach ([6]; 100 mg/kg p.o.): 0.1 ulcer/stomach | Ulcer-free animals % ([6]; 100 mg/kg p.o.): 96% | Ulcer-free animals No. ([6]; 100 mg/kg p.o.): 27 No. | No. of ulcer/stomach ([6]; 200 mg/kg p.o.): 1.2 ulcer/stomach | Ulcer-free animals % ([6]; 200 mg/kg p.o.): 50% | Ulcer-free animals No. ([6]; 200 mg/kg p.o.): 37 No. | No. of ulcer/stomach ([6]; 400 mg/kg p.o.): 1.1 ulcer/stomach | Ulcer-free animals % ([6]; 400 mg/kg p.o.): 71% | Ulcer-free animals No. ([6]; 400 mg/kg p.o.): 32 No. | gastrointestinal hemorrhagic or ulcerogenic side-effects of other non-steroidal antiphlogistic agents, specifically indomethacin ([6]; Series 1 discussion): antangonizes the gastrointestinal hemmorhagic or ulcerogenic side-effects

O=C(O)c1cccnc1Nc1cccc(C(F)(F)F)c1 [Niflumic acid]
ulcerogenic side-effects when administered together with sodium salicylate [7]: can also be antagonized effectively | main antiphlogistic effects when administered together with sodium salicylate [5]: remain unchanged, or even the antiphlogistic effects of the two active agents are superimposed

CC(=O)Oc1ccccc1C(=O)O [Aspirin, acetylsalicylic acid]
ulcerogenic side-effects when administered together with sodium salicylate [7]: can also be antagonized effectively | main antiphlogistic effects when administered together with sodium salicylate [5]: remain unchanged, or even the antiphlogistic effects of the two active agents are superimposed

CCCCC1C(=O)N(c2ccccc2)N(c2ccccc2)C1=O [Phenylbutazone, 4-butyl-1,2-diphenyl-pyrazolidine-3,5-dione]
ulcerogenic side-effects when administered together with sodium salicylate [7]: can also be antagonized effectively | main antiphlogistic effects when administered together with sodium salicylate [5]: remain unchanged, or even the antiphlogistic effects of the two active agents are superimposed

COc1ccc2c(c1)c(CC(=O)O)c(C)n2C(=O)c1ccc(Cl)cc1 [Indomethacin]
Died animals No. [8, 14]: 33 No. | Ulcerous animals % [8, 14]: 100% | Ulcerous animals No. [8, 14]: 45 No. | ulcers in the intestines of the survivors ([8]; indomethacin only, 20 mg/kg for 3 days, orally): clearly visible ulcers appeared in the intestines of the survivors | mortality at 72 h ([8]; rat, in vivo, po, indomethacin 3 × 20 mg/kg p.o. alone, 3rd day, read-out: Died animals %): 73% | acute toxicity of indomethacin alone relative to combination with Na-salicylate [9]: 72 fold | Relative intestinal toxicity IUD50/ED50 (C) [1]: 3.8 | Analgesic ED50 [1]: 3.65 mg/kg | Therapeutical index LD50/ED50 (C) [1]: 3.4 | Inhibition of oedema 30 min following carrageenin [2]: 23.6 and 42.3 and 42.7 | Inhibition of oedema 180 min following carrageenin [2]: 30.5 and 53.0 and 53.4 | Relative intestinal toxicity IUD50/ED50 (A) [2]: 5.8 | ED50 at 180 min [2]: 2.4 mg/kg | Inhibition of oedema, 3rd day, left (challenged) foot (daily dose 0.65 mg/kg p.o.): 26.7 percentage of control | Inhibition of oedema, 21st day, left foot (daily dose 0.65 mg/kg p.o.): 46.6 percentage of control | Inhibition of oedema, 21st day, right foot (daily dose 0.65 mg/kg p.o.): 47.2 percentage of control | Inhibition of oedema, 3rd day, left (challenged) foot (daily dose 1.25 mg/kg p.o.): 36.3 percentage of control | Inhibition of oedema, 21st day, left foot (daily dose 1.25 mg/kg p.o.): 46.7 percentage of control | Inhibition of oedema, 21st day, right foot (daily dose 1.25 mg/kg p.o.): 35.6 percentage of control | Inhibition of oedema, 3rd day, left (challenged) foot (daily dose 2.50 mg/kg p.o.): 36.8 percentage of control | Inhibition of oedema, 21st day, left foot (daily dose 2.50 mg/kg p.o.): 58.0 percentage of control | Inhibition of oedema, 21st day, right foot (daily dose 2.50 mg/kg p.o.): 72.6 percentage of control | reduction of indomethacin blood levels [10]: 30-50% | LD50 (in vivo [3]): 12.5 mg/kg | selectivity ratio (in vivo [4]): 5.2 | TD50 at 48 h (in vivo [11]): 14 mg/kg | TD50 at 4 h (in vivo [12]): 5 mg/kg | ulcerating potency among non-steroid antiinflammatory agents [13]: most potent ulcerating compound | Oedema-inhibiting effect % ([5]; indomethacin 5 mg/kg p.o. alone): 40% | Oedema-inhibiting effect % ([5]; indomethacin 10 mg/kg p.o. alone): 45%
